These results are taken from PMC6683117 (2019).

This test has as its system KRAS G12D mutated nucleotide (GAT), biotinylated hairpin (DNA, hairpin) TACATCTGATGGCGTATTAAGTTTTCTTAATACGCCATCAGATGTA
Nature of the test: SPR (Biacore X100), kinetic kd/ka. The following applies: 150 mM NaCl; HBS-EP (10 mM HEPES, 3 mM EDTA, 0.005% P20), 0.1% DMSO, pH 7.4, 25 °C; printed ka, kd give 3.04 × 10^-8.

As for `CN(C)CCCNC(=O)CCNC(=O)c1cc(NC(=O)c2nc(NC(=O)c3nc(NC(=O)CCNC(=O)c4cc(NC(=O)c5nc(NC(=O)CCCNC(=O)c6cc(NC(=O)c7cc(NC(=O)c8cc(NC(=O)CCNC(=O)c9cc(NC(=O)c%10nc(NC(=O)CCNC(=O)CCCC[C@@H]%11SC[C@@H]%12NC(=O)NC%12%11)cn%10C)cn9C)cn8C)cn7C)cn6C)cn5C)cn4C)cn3C)cn2C)cn1C` (stereo partly shown), the KD turned out to be 304 nM. This lies in the sub-micromolar range.
